Measurements: PubChem BioAssay AID256 (DTP/NCI, 2004)
Inconclusive results and toxic doses are left out. The calls were made as follows: active = survival T/C of 150% or more; inactive = T/C below 125% in these data.

Tested on: CD2F1 mice, L1210 leukemia ip, survival T/C
Assay: NCI In Vivo Anticancer Drug Screen. Data for tumor model L1210 Leukemia (intraperitoneal) in CD2F1 (CDF1) mice
Conditions: higher = longer survival
In short: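 In this screen, transplantable tumors were grown in mice given either the compound or its vehicle. Results were expressed as the treated measurement relative to the control measurement.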

[1] = endpoint: mean survival time, dose: 6.25 mg/kg/injection, schedule: Q01DX009 (ip), vehicle: saline with Tween-80
[2] = endpoint: mean survival time, dose: 12.5 mg/kg/injection, schedule: Q01DX009 (ip), vehicle: saline with Tween-80
[3] = endpoint: mean survival time, dose: 200.0 mg/kg/injection, schedule: Q04DX003 (ip), vehicle: saline with Tween-80
[4] = endpoint: mean survival time, dose: 100.0 mg/kg/injection, schedule: Q04DX003 (ip), vehicle: saline with Tween-80
[5] = endpoint: mean survival time, dose: 100.0 mg/kg/injection, schedule: Q01DX001 (ip), vehicle: saline
[6] = endpoint: mean survival time, dose: 200.0 mg/kg/injection, schedule: Q01DX001 (ip), vehicle: saline
[7] = endpoint: mean survival time, dose: 400.0 mg/kg/injection, schedule: Q04DX003 (ip), vehicle: saline with Tween-80
[8] = endpoint: mean survival time, dose: 100.0 mg/kg/injection, schedule: Q01DX009 (ip), vehicle: saline with Tween-80
[9] = endpoint: mean survival time, dose: 200.0 mg/kg/injection, schedule: Q01DX009 (ip), vehicle: saline with Tween-80

Measured: T/C

OC1C(COCc2ccccc2)OC(n2cccc2)C1O (stereo unspecified)
inactive: endpoint: median survival time, dose: 8.75 mg/kg/injection, schedule: Q01DX005 (ip), vehicle: distilled water + Tween-80 98 % of control | endpoint: median survival time, dose: 17.5 mg/kg/injection, schedule: Q01DX005 (ip), vehicle: distilled water + Tween-80 101 % of control | endpoint: median survival time, dose: 35.0 mg/kg/injection, schedule: Q01DX005 (ip), vehicle: distilled water + Tween-80 104 % of control | endpoint: median survival time, dose: 70.0 mg/kg/injection, schedule: Q01DX005 (ip), vehicle: distilled water + Tween-80 112 % of control | endpoint: median survival time, dose: 140.0 mg/kg/injection, schedule: Q01DX005 (ip), vehicle: distilled water + Tween-80 98 % of control

O=S(=O)(CC(Br)C(Br)CO)c1ccccc1 (stereo unspecified)
inactive: endpoint: median survival time, dose: 25.0 mg/kg/injection, schedule: Q04DX003 (ip), vehicle: saline with Tween-80 111 % of control | endpoint: median survival time, dose: 50.0 mg/kg/injection, schedule: Q04DX003 (ip), vehicle: saline with Tween-80 122 % of control | endpoint: median survival time, dose: 100.0 mg/kg/injection, schedule: Q04DX003 (ip), vehicle: saline with Tween-80 111 % of control | endpoint: median survival time, dose: 200.0 mg/kg/injection, schedule: Q04DX003 (ip), vehicle: saline with Tween-80 100 % of control

NC(=O)C1(N2CCCCC2)CCN(CCCC(=O)c2ccc(F)cc2)CC1
inactive: endpoint: mean survival time, dose: 25.0 mg/kg/injection, schedule: Q01DX009 (ip), vehicle: saline 101 % of control | endpoint: mean survival time, dose: 50.0 mg/kg/injection, schedule: Q01DX009 (ip), vehicle: saline 101 % of control

Clc1ccc(Nc2ccccc2)cc1
inactive: endpoint: mean survival time, dose: 100.0 mg/kg/injection, schedule: Q01DX001 (ip), vehicle: other 90 % of control | endpoint: mean survival time, dose: 200.0 mg/kg/injection, schedule: Q01DX001 (ip), vehicle: other 90 % of control | endpoint: mean survival time, dose: 400.0 mg/kg/injection, schedule: Q01DX001 (ip), vehicle: other 90 % of control

COc1cc(OC)c(OC)cc1/C=c1\[nH]c(=O)/c(=C/c2cc(OC)c(OC)cc2OC)[nH]c1=O
inactive: endpoint: mean survival time, dose: 3.13 mg/kg/injection, schedule: Q01DX009 (ip), vehicle: saline with Tween-80 102 % of control | [1] 90 % of control | [2] 91 % of control | [3] 87 % of control

COc1ccc2c(c1O)-c1cc(O)cc3c1C(C2)N(CCCl)CC3 (stereo unspecified)
inactive: endpoint: mean survival time, dose: 3.13 mg/kg/injection, schedule: Q04DX003 (ip), vehicle: water 104 % of control | endpoint: mean survival time, dose: 6.25 mg/kg/injection, schedule: Q04DX003 (ip), vehicle: water 102 % of control | endpoint: mean survival time, dose: 12.5 mg/kg/injection, schedule: Q04DX003 (ip), vehicle: water 105 % of control | endpoint: mean survival time, dose: 25.0 mg/kg/injection, schedule: Q04DX003 (ip), vehicle: DMSO 102 % of control | endpoint: mean survival time, dose: 25.0 mg/kg/injection, schedule: Q04DX003 (ip), vehicle: water 100 % of control | endpoint: mean survival time, dose: 50.0 mg/kg/injection, schedule: Q04DX003 (ip), vehicle: water 88 % of control

CC(=O)Nc1cccc(C[P+](c2ccccc2)(c2ccccc2)c2ccccc2)c1
inactive: [4] 92 % of control | [3] 92 % of control

OC1CNCc2cc3c(cc21)OCO3 (stereo unspecified)
inactive: [5] 107 % of control | [6] 104 % of control

CC1(CC#N)CO1 (stereo unspecified)
inactive: [4] 96 % of control | [3] 96 % of control | [7] 96 % of control

CCOC(=O)c1cc2ccccc2n1-c1ccccc1
inactive: [4] 95 % of control | [3] 97 % of control | [7] 95 % of control

CCc1nc(-c2ccccc2)c(-c2ccccc2)[nH]1
inactive: [4] 90 % of control | [3] 92 % of control | [7] 90 % of control

COc1cccc2c1C(=O)c1c(O)c3c(c(O)c1C2=O)C[C@@](O)(/C(C)=N/NC(=O)c1ccc(-c2ccccc2)cc1)C[C@@H]3OC1CC(N)C(O)C(C)O1 (stereo partly specified)
inactive: endpoint: mean survival time, dose: 0.06 mg/kg/injection, schedule: Q01DX009 (ip), vehicle: water 104 % of control | endpoint: mean survival time, dose: 0.13 mg/kg/injection, schedule: Q01DX009 (ip), vehicle: water 103 % of control | endpoint: mean survival time, dose: 0.25 mg/kg/injection, schedule: Q01DX009 (ip), vehicle: water 114 % of control | endpoint: mean survival time, dose: 0.5 mg/kg/injection, schedule: Q01DX009 (ip), vehicle: water 117 % of control | endpoint: mean survival time, dose: 1.0 mg/kg/injection, schedule: Q01DX009 (ip), vehicle: water 115 % of control | endpoint: mean survival time, dose: 2.0 mg/kg/injection, schedule: Q01DX009 (ip), vehicle: water 122 % of control | endpoint: mean survival time, dose: 4.0 mg/kg/injection, schedule: Q01DX009 (ip), vehicle: water 111 % of control | endpoint: mean survival time, dose: 8.0 mg/kg/injection, schedule: Q01DX009 (ip), vehicle: water 117 % of control | endpoint: mean survival time, dose: 16.0 mg/kg/injection, schedule: Q01DX009 (ip), vehicle: water 88 % of control

C/C(=N\Nc1ccc([N+](=O)[O-])cc1[N+](=O)[O-])c1ccc[nH]1
inactive: [8] 87 % of control | [4] 95 % of control | [9] 97 % of control | [3] 95 % of control | endpoint: mean survival time, dose: 400.0 mg/kg/injection, schedule: Q01DX009 (ip), vehicle: saline with Tween-80 93 % of control | [7] 91 % of control

Cc1cccc(C)c1N=NN(C)C
inactive: [1] 107 % of control | endpoint: mean survival time, dose: 12.5 mg/kg/injection, schedule: Q01DX009 (ip), vehicle: other 90 % of control | [2] 104 % of control | endpoint: mean survival time, dose: 25.0 mg/kg/injection, schedule: Q01DX009 (ip), vehicle: other 100 % of control | endpoint: mean survival time, dose: 25.0 mg/kg/injection, schedule: Q01DX009 (ip), vehicle: saline with Tween-80 118 % of control

O=[N+]([O-])c1ccc2nsnc2c1
inactive: endpoint: mean survival time, dose: 100.0 mg/kg/injection, schedule: Q01DX001 (ip), vehicle: saline with Tween-80 103 % of control | [8] 103 % of control | endpoint: mean survival time, dose: 200.0 mg/kg/injection, schedule: Q01DX001 (ip), vehicle: saline with Tween-80 106 % of control | [9] 114 % of control | endpoint: mean survival time, dose: 400.0 mg/kg/injection, schedule: Q01DX001 (ip), vehicle: saline with Tween-80 107 % of control

O=c1cc(Cc2ccccc2)[nH]c(=S)[nH]1
inactive: endpoint: mean survival time, dose: 100.0 mg/kg/injection, schedule: Q01DX001 (ip), vehicle: Klucel (hydroxypropylcellulose) (HPC) 94 % of control | endpoint: mean survival time, dose: 200.0 mg/kg/injection, schedule: Q01DX001 (ip), vehicle: Klucel (hydroxypropylcellulose) (HPC) 95 % of control | endpoint: mean survival time, dose: 400.0 mg/kg/injection, schedule: Q01DX001 (ip), vehicle: Klucel (hydroxypropylcellulose) (HPC) 89 % of control

O=[N+]([O-])c1cccc(N=C(Nc2cccc([N+](=O)[O-])c2)c2ccccc2)c1
inactive: [4] 113 % of control | [3] 107 % of control | [7] 103 % of control

CC(=O)OCC1OC(n2ncc3c(N4CC4)ncnc32)C(OC(C)=O)C1OC(C)=O (stereo unspecified)
inactive: endpoint: mean survival time, dose: 25.0 mg/kg/injection, schedule: Q01DX005 (ip), vehicle: distilled water + Tween-80 97 % of control | endpoint: mean survival time, dose: 50.0 mg/kg/injection, schedule: Q01DX005 (ip), vehicle: distilled water + Tween-80 99 % of control | endpoint: mean survival time, dose: 100.0 mg/kg/injection, schedule: Q01DX005 (ip), vehicle: distilled water + Tween-80 101 % of control | endpoint: mean survival time, dose: 200.0 mg/kg/injection, schedule: Q01DX005 (ip), vehicle: distilled water + Tween-80 100 % of control | endpoint: mean survival time, dose: 400.0 mg/kg/injection, schedule: Q01DX005 (ip), vehicle: distilled water + Tween-80 97 % of control

O=S(=O)(Cl)c1ccc2cc3ccccc3cc2c1
inactive: endpoint: mean survival time, dose: 50.0 mg/kg/injection, schedule: Q04DX003 (ip), vehicle: saline 96 % of control | [5] 94 % of control | endpoint: mean survival time, dose: 100.0 mg/kg/injection, schedule: Q04DX003 (ip), vehicle: saline 96 % of control | [6] 101 % of control | endpoint: mean survival time, dose: 200.0 mg/kg/injection, schedule: Q04DX003 (ip), vehicle: saline 102 % of control

CCC(C(=N)C#N)[N+](=O)[O-] (stereo unspecified)
inactive: endpoint: mean survival time, dose: 100.0 mg/kg/injection, schedule: Q04DX002 (ip), vehicle: saline 91 % of control | endpoint: mean survival time, dose: 200.0 mg/kg/injection, schedule: Q04DX002 (ip), vehicle: saline 95 % of control | endpoint: mean survival time, dose: 400.0 mg/kg/injection, schedule: Q04DX002 (ip), vehicle: saline 91 % of control
